# Source: patent US9637493B2, “Substituted pyrrolopyrimidines as HDM2 inhibitors” (Merck Sharp & Dohme Corp., priority 2012, dated 2017)
# Target: HDM2 (Homo sapiens (Human), UniProt Q00987)
# Assay: HDM2 FRET assay (inhibition of p53 peptide binding to HDM2)
# Details: truncated HDM2 residues 17 to 125, 0.5 nM; FITC labeled 8-mer peptide 3 nM; two hour incubation at room temperature
# Procedure: Methods: An HDM2 FRET assay was developed to assess the compounds' inhibitory activity towards binding of p53 protein. […] (containing p53 binding surface, Science (1994) 265, 346-355), with N-terminal His and Thioredoxin tag was generated in pET32a expression vector and expressed in E. coli strain BL21(DE3)Rosetta. Protein was purified using Ni-affinity chromatography, followed by size exclusion chromatography using Superdex 75 26/60 column. […] After two hour incubation at room temperature in a humidified chamber plates were read on EnVision plate reader with the following settings: excitation: UV, […], two emission filters: 520 nm and 495 nm respectively. […] IC50 DETERMINATIONS: Dose-response curves were plotted from the inhibition data, from 10 point serial dilutions of inhibitory compounds. Concentration of compound was plotted against em520/Cem495 ratio signal. To generate IC50 values, the dose-response curves were fitted to a standard sigmoidal curve and IC50 values were derived by nonlinear regression analysis.
# HDM2, sequence (Q00987 17-125): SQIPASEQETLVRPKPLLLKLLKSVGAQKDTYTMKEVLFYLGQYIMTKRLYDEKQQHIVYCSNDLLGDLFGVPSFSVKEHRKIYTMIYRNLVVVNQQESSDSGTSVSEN
row,SMILES,IC50 [nM]
1,"COc1ccc(Cn2c(-c3cccc(C)c3)cc3nc(C(=O)O)nc(N[C@H](C)C4CCC4)c32)cc1 [Example 2.8, 4-{[(1R)-1-cyclobutylethyl]amino}-5-(4-methoxybenzyl)-6-(3-methylphenyl)-5H-pyrrolo[3,2-d]pyrimidine-2-carboxylic acid]",6190
2,"Cc1cn(C[C@H]2CC[C@H](C)CC2)c2c(-c3cccc(Cl)c3)nc(-c3noc(=O)[nH]3)nc12 [Example 5.2, 3-{4-(3-chlorophenyl)-7-methyl-5-[(trans-4-methylcyclohexyl)methyl]-5H-pyrrolo[3,2-d]pyrimidin-2-yl}-1,2,4-oxadiazol-5(4H)-one]",107
3,"Cc1ccc(Cl)c(-c2cc3nc(C(=O)O)nc(N[C@H](C)C4CCC4)c3n2Cc2ccc(C(F)(F)F)cc2)c1 [Example 1.7, 6-(2-chloro-5-methylphenyl)-4-{[(1R)-1-cyclobutylethyl]amino}-5-[4-(trifluoromethyl)benzyl]-5H-pyrrolo[3,2-d]pyrimidine-2-carboxylic acid]",63
4,"Cc1cccc(-c2cc3nc(C(=O)O)nc(N[C@H](C)C4CCC4)c3n2Cc2ccc(C(F)F)cc2)c1 [Example 3.2, 4-{[(1R)-1-cyclobutylethyl]amino}-5-[4-(difluoromethyl)benzyl]-6-(3-methylphenyl)-5H-pyrrolo[3,2-d]pyrimidine-2-carboxylic acid]",530
5,"Cc1cccc(-c2cc3nc(C(=O)O)nc(N[C@H](C)C4CCC4)c3n2Cc2ccc(OC(F)(F)F)c(F)c2)c1 [Example 2.4, 4-{[(1R)-1-cyclobutylethyl]amino}-5-[3-fluoro-4-(trifluoromethoxy)benzyl]-6-(3-methylphenyl)-5H-pyrrolo[3,2-d]pyrimidine-2-carboxylic acid]",267
6,"C[C@H]1CC[C@H](Cn2c(C(F)c3ccccc3F)cc3nc(C(=O)O)nc(-c4cncc(Cl)c4)c32)CC1 (mixture of isomers) [Example 8.1, 4-(5-chloropyridin-3-yl)-6-[fluoro(2-fluorophenyl)methyl]-5-[(trans-4-methylcyclohexyl)methyl]-5H-pyrrolo[3,2-d]pyrimidine-2-carboxylic acid]",3
7,"Cc1ccc(F)c(-c2cn(Cc3ccc(C(F)(F)F)cc3)c3c(N[C@H](C)C4CCC4)nc(C(=O)O)nc23)c1 [Example 1.2, (R)-4-((1-cyclobutylethyl)amino)-7-(2-fluoro-5-methylphenyl)-5-(4-(trifluoromethyl)benzyl)-5H-pyrrolo[3,2-d]pyrimidine-2-carboxylic acid]",353
8,"C[C@H]1CC[C@H](Cn2ccc3nc(-c4noc(=O)[nH]4)nc(-c4cccc(Cl)c4)c32)CC1 [Example 4.2, 3-{4-(3-chlorophenyl)-5-[(trans-4-methylcyclohexyl)methyl]-5H-pyrrolo[3,2-d]pyrimidin-2-yl}-1,2,4-oxadiazol-5(4H)-one]",132
9,"C[C@H]1CC[C@H](Cn2cc(CCc3cccnc3)c3nc(-c4noc(=O)[nH]4)nc(-c4cncc(Cl)c4)c32)CC1 [Example 6.2, 3-[4-(5-chloropyridin-3-yl)-5-[(trans-4-methylcyclohexyl)methyl]-7-(2-pyridin-3-ylethyl)-5H-pyrrolo[3,2-d]pyrimidin-2-yl]-1,2,4-oxadiazol-5(4H)-one]",13
10,"C[C@H]1CC[C@H](Cn2cc(Cc3ccccc3)c3nc(-c4n[nH]c(=O)o4)nc(-c4cncc(Cl)c4)c32)CC1 [Example 5.6, 5-{7-benzyl-4-(5-chloropyridin-3-yl)-5-[(trans-4-methylcyclohexyl)methyl]-5H-pyrrolo[3,2-d]pyrimidin-2-yl}-1,3,4-oxadiazol-2(3H)-one]",54
11,"C[C@H]1CC[C@H](Cn2ccc3nc(-c4n[nH]c(=O)o4)nc(-c4cncc(Cl)c4)c32)CC1 [Example 4.5, 5-{4-(5-chloropyridin-3-yl)-5-[(trans-4-methylcyclohexyl)methyl]-5H-pyrrolo[3,2-d]pyrimidin-2-yl}-1,3,4-oxadiazol-2(3H)-one]",95
12,"COc1cc(OC(F)(F)F)ccc1Cn1c(-c2cccc(C)c2)cc2nc(C(=O)O)nc(N[C@H](C)C3CCC3)c21 [Example 2.5, 4-{[(1R)-1-cyclobutylethyl]amino}-5-[2-methoxy-4-(trifluoromethoxy)benzyl]-6-(3-methylphenyl)-5H-pyrrolo[3,2-d]pyrimidine-2-carboxylic acid]",4370
13,"CC(C)Cc1cn(C[C@H]2CC[C@H](C)CC2)c2c(-c3cncc(Cl)c3)nc(C(=O)O)nc12 [Example 5.7, 4-(5-chloropyridin-3-yl)-5-[(trans-4-methylcyclohexyl)methyl]-7-(2-methylpropyl)-5H-pyrrolo[3,2-d]pyrimidine-2-carboxylic acid]",71
14,"C[C@H]1CC[C@H](Cn2cc(CCc3cccnc3)c3nc(C(=O)O)nc(-c4cncc(Cl)c4)c32)CC1 [Example 6.1, 4-(5-chloropyridin-3-yl)-5-[(trans-4-methylcyclohexyl)methyl]-7-(2-pyridin-3-ylethyl)-5H-pyrrolo[3,2-d]pyrimidine-2-carboxylic acid]",47
15,"Cc1cccc(-c2cc3nc(C(=O)O)nc(N[C@H](C)C4CCC4)c3n2Cc2ccc(Cl)c(F)c2)c1 [Example 3.1, 5-(4-chloro-3-fluorobenzyl)-4-{[(1R)-1-cyclobutylethyl]amino}-6-(3-methylphenyl)-5H-pyrrolo[3,2-d]pyrimidine-2-carboxylic acid]",21
16,"Cc1cccc(-c2cc3nc(C(=O)O)nc(N[C@H](C)C4CCC4)c3n2Cc2ccc(C)c(F)c2)c1 [Example 3.6, 4-{[(1R)-1-cyclobutylethyl]amino}-5-(3-fluoro-4-methylbenzyl)-6-(3-methylphenyl)-5H-pyrrolo[3,2-d]pyrimidine-2-carboxylic acid]",124
